Results reported in US8802673B2, “Heterocyclic amine derivatives” (Hoffmann-La Roche Inc, priority 2011, dated 2014).

Experiments:
mouse TAAR1 = mouse TAAR1 (Mus musculus (Mouse), UniProt Q923Y8); assay: Radioligand binding assay on mouse TAAR1; conditions: mouse TAAR1 (first value of the cell), HEK-293 membranes; read-out: Ki (μM) mouse/rat
Description: (§1) Construction of TAAR Expression Plasmids and Stably Transfected Cell Lines
(§2) For the construction of expression plasmids the coding sequences of human, rat and mouse TAAR 1 were amplified from genomic DNA essentially as described by Lindemann et al.. The Expand High Fidelity PCR System (Roche Diagnostics) was used with 1.5 mM Mg^2+ and purified PCR products were cloned into pCR2.1-TOPO cloning vector (Invitrogen) following the instructions of the manufacturer. PCR products were subcloned into the pIRESneo2 vector (BD Clontech, Palo Alto, Calif.), and expression vectors were sequence verified before introduction in cell lines.
(§3) HEK293 cells (ATCC #CRL-1573) were cultured essentially as described by Lindemann et al. (2005). For the generation of stably transfected cell lines HEK293 cells were transfected with the pIRESneo2 expression plasmids containing the TAAR coding sequences (described above) with Lipofectamine 2000 (Invitrogen) according to the instructions of the manufacturer, and 24 hrs post transfection the culture medium was supplemented with 1 mg/ml G418 (Sigma, Buchs, Switzerland). After a culture period of about 10 d clones were isolated, expanded and tested for responsiveness to trace amines (all compounds purchased from Sigma) with the cAMP Biotrak Enzyme immunoassay (EIA) System (Amersham) following the non-acetylation EIA procedure provided by the manufacturer.
Radioligand Binding Assay on Mouse TAAR1
Membrane Preparation and Radioligand Binding.
(§4) HEK-293 cells stably expressing mouse TAAR1 were maintained at 37° C. and 5% CO2 in DMEM high glucose medium, containing fetal calf serum (10%, heat inactivated for 30 min at 56° C.), penicillin/streptomycin (1%), and 375 μg/ml geneticin (Gibco). Cells were released from culture flasks using trypsin/EDTA, harvested, washed twice with ice-cold PBS (without Ca^2+ and Mg^2+), pelleted at 1,000 rpm for 5 min at 4° C., frozen and stored at −80° C. Frozen pellets were suspended in 20 ml HEPES-NaOH (20 mM, pH 7.4) containing 10 mM EDTA and homogenized with a Polytron (PT 6000, Kinematica) at 14,000 rpm for 20 s. The homogenate was centrifuged at 48,000×g for 30 min at 4° C. Subsequently, the supernatant was removed and discarded, and the pellet resuspended in 20 ml HEPES-NaOH (20 mM, pH 7.4) containing 0.1 mM EDTA using the Polytron (20 s at 14,000 rpm). This procedure was repeated and the final pellet resuspended in HEPES-NaOH containing 0.1 mM EDTA and homogenized using the Polytron. Typically, aliquots of 2 ml membrane portions were stored at −80° C. With each new membrane batch the dissociation constant (Kd) was determined via a saturation curve. […] All compounds were tested at a broad range of concentrations (10 pM to 10 μM) in duplicates. […] The 96 deep well plates were incubated for 1 hr at 4° C. Incubations were terminated by rapid filtration through Unifilter-96 plates (Packard Instrument Company) and glass filters GF/C (Perkin Elmer) presoaked for 1 hr in polyethylenimine (0.3%) and washed 3 times with 1 ml of cold binding buffer. After addition of 45 μl of Microscint 40 (PerkinElmer) the Unifilter-96 plate was sealed and after 1 hr the ratioactivity counted using a TopCount Microplate Scintillation Counter (Packard Instrument Company).

rat TAAR1 = rat TAAR1 (Rattus norvegicus (Rat), UniProt Q923Y9); assay: Radioligand binding assay on rat TAAR1; conditions: rat TAAR1 (second value of the cell), HEK-293 membranes; read-out: Ki (μM) mouse/rat
Sequence of rat TAAR1 (Q923Y9 whole entry): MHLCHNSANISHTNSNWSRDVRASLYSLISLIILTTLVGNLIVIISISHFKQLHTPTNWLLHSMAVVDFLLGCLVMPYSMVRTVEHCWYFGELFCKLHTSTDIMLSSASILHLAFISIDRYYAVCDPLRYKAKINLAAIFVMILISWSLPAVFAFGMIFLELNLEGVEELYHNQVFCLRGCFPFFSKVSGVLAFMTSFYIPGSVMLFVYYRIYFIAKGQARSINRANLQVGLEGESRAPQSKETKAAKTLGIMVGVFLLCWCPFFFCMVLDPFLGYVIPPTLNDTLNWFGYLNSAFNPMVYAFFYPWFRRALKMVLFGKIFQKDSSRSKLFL
Description: as §1, §2, §3
Radioligand Binding Assay on Rat TAAR1
Membrane Preparation and Radioligand Binding
as §4, with “rat” for “mouse”

Sequence of mouse TAAR1 (Q923Y8 whole entry): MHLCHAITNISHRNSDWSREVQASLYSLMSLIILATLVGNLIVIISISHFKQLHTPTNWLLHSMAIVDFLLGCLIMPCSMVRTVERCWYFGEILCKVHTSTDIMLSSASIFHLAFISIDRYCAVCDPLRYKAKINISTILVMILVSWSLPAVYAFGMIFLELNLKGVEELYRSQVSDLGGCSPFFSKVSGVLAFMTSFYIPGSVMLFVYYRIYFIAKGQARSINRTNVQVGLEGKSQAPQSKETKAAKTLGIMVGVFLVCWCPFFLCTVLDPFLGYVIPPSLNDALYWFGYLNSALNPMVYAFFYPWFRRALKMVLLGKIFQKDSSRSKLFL

SMILES | Ki (mouse TAAR1) [µM] | Ki (rat TAAR1) [µM]
FC(F)(F)c1ccc(CNc2ccc([C@H]3CNCCO3)cc2)cn1 [Example 33, (S)-4-(Morpholin-2-yl)-N-((6-(trifluoromethyl)pyridin-3-yl)methyl)aniline] | 0.047 | 0.544
FC(F)(F)Oc1ccc(CNc2ccc([C@H]3CNCCO3)cc2)cc1 [Example 25, ((S)-4-Morpholin-2-yl-phenyl)-(4-trifluoromethoxy-benzyl)-amine] | 0.0124 | 0.0705
FC(F)(F)c1cc(Nc2ccc([C@H]3CNCCO3)cc2)c2cccc(C(F)(F)F)c2n1 [Example 49, (S)—N-(4-(Morpholin-2-yl)phenyl)-2,8-bis(trifluoromethyl)quinolin-4-amine] | 0.0266 | 0.104
Cc1cc(Br)cnc1Nc1ccc([C@H]2CNCCO2)cc1 [Example 56, (S)-5-Bromo-3-methyl-N-(4-(morpholin-2-yl)phenyl)pyridin-2-amine] | 0.0372 | 0.211
FC(F)(F)c1cnc(Nc2ccc([C@@H]3CNCCO3)cc2)c(Cl)c1 [Example 185, (R)-3-Chloro-N-(4-(morpholin-2-yl)phenyl)-5-(trifluoromethyl)pyridin-2-amine] | 0.0549 | 0.0888
Clc1ccc2nc(Nc3ccc([C@H]4CNCCO4)cc3)ccc2c1 [Example 47, (S)-6-Chloro-N-(4-(morpholin-2-yl)phenyl)quinolin-2-amine] | 0.0012 | 0.0067
COc1ccc(-c2cnc(Nc3ccc([C@@H]4CNCCO4)cc3)nc2)cc1OC [Example 142] | 0.0027 | 0.0146
COc1ccc(CNc2ccc([C@H]3CNCCO3)cc2)cc1 [Example 20, (4-Methoxy-benzyl)-((S)-4-morpholin-2-yl-phenyl)-amine] | 0.0453 | 0.764
Brc1ccc(Nc2ccc([C@H]3CNCCO3)cc2)nc1 [Example 10, (S)-5-Bromo-N-(4-(morpholin-2-yl)phenyl)pyridin-2-amine] | 0.0015 | 0.0337
Clc1ccc(Nc2ccc([C@@H]3CNCCO3)cc2)cn1 [Example 67, (R)-6-Chloro-N-(4-(morpholin-2-yl)phenyl)pyridin-3-amine] | 0.0074 | 0.292
c1ccc(-c2cc(Nc3ccc([C@H]4CNCCO4)cc3)n[nH]2)cc1 [Example 113, (S)—N-(4-(Morpholin-2-yl)phenyl)-5-phenyl-1H-pyrazol-3-amine] | 0.0011 | 0.0877
Cc1nc(Nc2ccc([C@H]3CNCCO3)cc2)ncc1C(C)C [Example 73, (5-Isopropyl-4-methyl-pyrimidin-2-yl)-((S)-4-morpholin-2-yl-phenyl)-amine] | 0.0096 | 0.035
Cc1cc(C)nc(Nc2ccc([C@@H]3CNCCO3)cc2)n1 [Example 182, (4,6-Dimethyl-pyrimidin-2-yl)-((R)-4-morpholin-2-yl-phenyl)-amine] | 0.0144 | 0.447
Cc1cnc(Nc2ccc([C@@H]3CNCCO3)cc2)cn1 [Example 157, (5-Methyl-pyrazin-2-yl)-((R)-4-morpholin-2-yl-phenyl)-amine] | 0.0132 | > 10
c1ccc(-n2ccc(Nc3ccc([C@H]4CNCCO4)cc3)n2)cc1 [Example 163, ((S)-4-Morpholin-2-yl-phenyl)-(1-phenyl-1H-pyrazol-3-yl)-amine] | 0.0026 | 0.0332
Cc1ccc(CNc2ccc([C@H]3CNCCO3)cc2)cc1 [Example 22, (4-Methyl-benzyl)-((S)-4-morpholin-2-yl-phenyl)-amine] | 0.0375 | 0.468
Clc1ccc(CCNc2ccc([C@H]3CNCCO3)cc2)cc1 [Example 34, [2-(4-Chloro-phenyl)-ethyl]-((S)-4-morpholin-2-yl-phenyl)-amine] | 0.0042 | 0.0181

Next, values leading:

Ki (mouse TAAR1) [µM] | Ki (rat TAAR1) [µM] | SMILES
0.0035 | 0.0162 | FC(F)(F)COc1ccnc(Nc2ccc([C@@H]3CNCCO3)cc2)n1 [Example 172, ((R)-4-Morpholin-2-yl-phenyl)-[4-(2,2,2-trifluoro-ethoxy)-pyrimidin-2-yl]-amine]
0.152 | > 10 | c1cnc(Nc2ccc([C@@H]3CNCCO3)cc2)nc1 [Example 176, (R)—N-(4-(Morpholin-2-yl)phenyl)pyrimidin-2-amine]
0.0089 | 0.0588 | FC(F)(F)c1nccc(Nc2ccc([C@@H]3CNCCO3)cc2)n1 [Example 200, (R)—N-(4-(morpholin-2-yl)phenyl)-2-(trifluoromethyl)pyrimidin-4-amine]
0.0038 | 0.0196 | Clc1cc(Nc2ncc(C3CC3)cn2)ccc1[C@H]1CNCCO1 [Example 193, ((S)-3-Chloro-4-morpholin-2-yl-phenyl)-(5-cyclopropyl-pyrimidin-2-yl)-amine]
0.0031 | 0.0422 | Fc1cnc(Nc2ccc([C@@H]3CNCCO3)cc2)nc1C1CC1 [Example 190, (4-Cyclopropyl-5-fluoro-pyrimidin-2-yl)-((R)-4-morpholin-2-yl-phenyl)-amine]
0.0014 | 0.0194 | Cc1cc(Nc2ccc(C3CNCCO3)cc2C)ncc1Br (racemic) [Example 85, (RS)-5-Bromo-4-methyl-N-(2-methyl-4-(morpholin-2-yl)phenyl)pyridin-2-amine]
0.0042 | 0.155 | CCOc1cnc(Nc2ccc([C@H]3CNCCO3)cc2)nc1 [Example 29, (5-Ethoxy-pyrimidin-2-yl)-((S)-4-morpholin-2-yl-phenyl)-amine]
0.0047 | 0.0182 | CCOc1cnc(Nc2ccc([C@@H]3CNCCO3)cc2F)nc1 [Example 132, (5-Ethoxy-pyrimidin-2-yl)-((R)-2-fluoro-4-morpholin-2-yl-phenyl)-amine]
0.0031 | 0.0315 | Fc1cc(Nc2ncc(C(F)(F)F)cn2)ccc1[C@H]1CNCCO1 [Example 197, (S)—N-(3-Fluoro-4-(morpholin-2-yl)phenyl)-5-(trifluoromethyl)pyrimidin-2-amine]
0.0077 | 0.0065 | FC(F)(F)c1cnc(Nc2ccc([C@@H]3CNCCO3)cc2Cl)nc1 [Example 168, ((R)-2-Chloro-4-morpholin-2-yl-phenyl)-(5-trifluoromethyl-pyrimidin-2-yl)-amine]
0.0043 | 0.0068 | CCCc1cnc(Nc2ccc([C@H]3CNCCO3)cc2F)nc1 [Example 129, ((S)-2-Fluoro-4-morpholin-2-yl-phenyl)-(5-propyl-pyrimidin-2-yl)-amine]
